The series is described as follows: Distribution coefficient K of sucralose between ethyl acetate (light phase) and aqueous DMAHCl/NaCl solution (heavy phase). The conditions noted are these: about 37 g ethyl acetate. The format is physicochemical. Here is the method:
The solutions were all clear and colorless at room temperature.
Each sample was shaken with about 37 g of ethyl acetate (EA). The mixture was allowed to settle, resulting in the formation of a heavy phase (aqueous) and a light phase (EA based). The weights of these respective phases were recorded and each phase was analysed for its sucralose content. The dry solids content of each phase was also measured by evaporation to dryness (moisture balance).
From the data presented, it is possible to calculate the distribution coefficient K for each experiment, where K is defined as: K=(Wt % Sucralose in light phase)/(Wt % sucralose in heavy phase)

Turning to `OC[C@H]1O[C@H](O[C@]2(CCl)O[C@H](CCl)[C@@H](O)[C@@H]2O)[C@H](O)[C@@H](O)[C@H]1Cl` [Sucralose, 4,1′,6′-trichloro-4,1′,6′-trideoxygalactosucrose], the “Calculated K / Actual K = (Wt % Sucralose in light phase)/(Wt % sucralose in heavy phase)” value is on record as 1.38 (Exp #3, feed wt % on water: DMAHCL 0.36%, NaCl 9.87%, sucralose 27.58%); 0.93 (Exp #4, feed wt % on water: DMAHCL 0.41%, NaCl 2.10%, sucralose 27.06%); 1.09 (Exp #5, feed wt % on water: DMAHCL 5.07%, NaCl 9.75%, sucralose 27.31%); 0.83 (Exp #8, feed wt % on water: DMAHCL 4.99%, NaCl 2.04%, sucralose 27.01%); 0.76 (Exp #9, feed wt % on water: DMAHCL 2.55%, NaCl 5.15%, sucralose 13.98%).

The values above are taken from patent US8497367B2, “Sucralose purification process” (Tate & Lyle Technology Limited, priority 2008, dated 2013).
